# Measured values published in patent US6455577B2, “Flavanone derivatives and composition for preventing or treating blood lipid level-related diseases comprising same” (Korea Research Institute of Bioscience and Biotechnology, priority 2000, dated 2002).
# Tests used:
# [1] = tested on: New Zealand White rabbits; assay: Fatty streak in the main artery of cholesterol-fed rabbits; format: in vivo, rabbit
# Procedure: (§1) 22 three-month-old New Zealand White rabbits(Yeonam Horticulture and Animal Husbandry College, Korea) each weighing about 2.0 to 2.3 kg were bred under a condition of temperature 20±2° C., relative humidity 55±10%, and photoperiod 12L/12D. The rabbits were divided two groups of 6 rabbits and a group of 10 rabbits, and the rats of three groups were fed with three different diets, i.e., RC4 diet(Oriental Yeast Co., Japan) containing 1% cholesterol(Control group); 1% cholesterol plus 1 mg/kg Lovastatin® (Merck, U.S.A.)(Comparative group); and 1% cholesterol plus 0.1% NG5006, respectively. RC4 diet comprises 7.6% moisture, 22.8% crude protein, 2.8% crude fat, 8.8% crude ash, 14.4% crude cellulose and 43.6% soluble nitrogen-free substances. The rabbits were bred for 8 weeks while being allowed free access to the diets and water.
# The rabbits bred in Step 1 were sacrificed and their chest were incised. The main artery was cut out therefrom in a length of about 5 cm downward from the site 1 cm above the aortic valve and the fat surrounding the main artery was removed. The main artery was incised in the middle along the longitudinal axis and fixed in 10% neutral buffered formalin for 24 hours, and then, pinned to a dish. The moist artery was photographed and, then, staining of fatty streak was carried out in accordance with the method of Esper, E., et al. (J. Lab. Clin. Med., 121, 103-110(1993)) as follows.
# A part of the incised main artery was washed three times by 2 min. with anhydrous propylene glycol and stained for 30 min. with a saturated solution of Oil Red O(ORO, Sigma Co.) dissolved in propylene glycol. Thereafter, the artery was washed twice by 3 min. with 85% propylene glycol to remove remaining staining solution and, then washed with physical saline. The artery was photographed and the photograph was traced. The area of stained legion(fatty streak legion) was determined with an image analyzer(LEICA, Q-600, Germany) and its proportion(%) to the total arterial area was calculated. The result is shown in Table V. The results were tested by student t-test by using Microsoft excel(version 7.0) program.
# [2] = tested on: New Zealand White rabbits; assay: Abnormal fat-containing liver cells (fatty liver) in cholesterol-fed rabbits; format: in vivo, rabbit
# Procedure: as §1
# In order to evaluate the effects of feeding a high cholesterol diet with NG5006 on liver tissues, the liver specimens taken from the sacrificed rabbit in Step 2 of Example 14 were treated in accordance with the procedure disclosed in Fogt F. and Nanji A., Toxicology and Applied Pharmacology, 136, 87-93, 1996; and Keegan A., et al., Journal of Hepatology, 23, 591-600, 1995, and observed under a microscope to be classified into four grades, i.e., 1+(0-25%), 2+(26-50%), 3+(51-75), 4+(76-100%) based on the proportion of abnormal fat-containing cells around the central vein in the liver acinus. The results were tested by student t-test by using Microsoft excel(version 7.0) program.
# ACAT [3] = assay: ACAT activity in fed rabbits; format: in vivo, rabbit; conditions: rabbits fed 1% cholesterol plus 1 mg/kg Lovastatin or 0.1% NG5006, 8 weeks
# Procedure: as §1
# The effect of feeding NG5006 to rabbits on the activities of ACAT was determined using the rabbits bred in Step 1 of Example 14 in accordance with procedure disclosed in step 1 of Example 13.
# HMG-CoA reductase = target: T1, HMG-CoA reductase (Rattus norvegicus, UniProt P51639); assay: HMG-CoA reductase activity in liver microsomes of fed rats; format: in vivo; conditions: liver microsomes of rats fed 1% cholesterol plus 0.02% naringenin or 0.036% NG5006, six weeks
# T1 construct: microsomes were separated from liver tissues to be used as an enzyme source; from tissue; host or cells: liver microsomes of fed rats
# T1 sequence (P51639 1-887): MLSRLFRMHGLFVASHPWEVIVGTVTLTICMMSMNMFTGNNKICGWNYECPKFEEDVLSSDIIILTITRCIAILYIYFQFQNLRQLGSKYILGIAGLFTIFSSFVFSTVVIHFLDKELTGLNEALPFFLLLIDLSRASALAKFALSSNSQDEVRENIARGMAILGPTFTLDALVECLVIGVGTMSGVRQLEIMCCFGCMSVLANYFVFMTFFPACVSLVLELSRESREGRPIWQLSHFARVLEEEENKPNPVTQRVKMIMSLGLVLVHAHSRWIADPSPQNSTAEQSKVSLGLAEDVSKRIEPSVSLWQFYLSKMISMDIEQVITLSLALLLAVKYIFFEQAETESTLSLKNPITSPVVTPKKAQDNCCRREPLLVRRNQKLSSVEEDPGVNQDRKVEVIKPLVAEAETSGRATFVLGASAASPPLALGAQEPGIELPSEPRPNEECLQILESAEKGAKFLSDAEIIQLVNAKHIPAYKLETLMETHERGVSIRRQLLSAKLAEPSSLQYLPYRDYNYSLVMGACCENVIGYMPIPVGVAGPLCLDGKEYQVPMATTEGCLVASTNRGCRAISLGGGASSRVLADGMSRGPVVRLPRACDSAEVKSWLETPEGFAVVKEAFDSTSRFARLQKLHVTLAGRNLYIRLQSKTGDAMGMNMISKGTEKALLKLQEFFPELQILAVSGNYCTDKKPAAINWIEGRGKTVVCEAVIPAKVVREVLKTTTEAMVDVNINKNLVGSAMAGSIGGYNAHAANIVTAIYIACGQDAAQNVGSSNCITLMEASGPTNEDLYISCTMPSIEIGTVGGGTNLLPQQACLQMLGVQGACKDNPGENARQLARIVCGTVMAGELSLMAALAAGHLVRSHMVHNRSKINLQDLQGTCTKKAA
# Procedure: (§2) To determine the effect of feeding NG5006 to rats on the activities of ACAT and HMG-CoA reductase, microsomes were separated from liver tissues to be used as an enzyme source.
# (§3) 1 g each of the livers taken from each group of rats of Example 12 was homogenized in 5 ml of homogenization medium(0. 1 M KH2PO4, pH 7.4, 0.1 mM EDTA and 10 mM β-mercaptoethanol). The homogenate was centrifuged at 3,000×g for 10 min. at 4° C. and the supernatant thus obtained was centrifuged at 15,000×g for 15 min. at 4° C. to obtain a supernatant. The supernatant was put into an ultracentrifuge tube(Beckman) and centrifuged at 100,000×g for 1 hour at 4° C. to obtain microsomal pellets, which were then suspended in 3 ml of the homogenization medium and centrifuged at 100,000×g for 1 hour at 4° C. The pellets thus obtained were suspended in 1 ml of the homogenization medium. The protein concentration of the resulting suspension was determined by Lowry's method and then adjusted to 4 to 8 mg/ml. The resulting suspension was stored in a deep freezer(Biofreezer, Forma Scientific Inc.).
# The activity of HMG-CoA reductase was determined by employing [^14C]HMG-CoA, in accordance with the method of Shapiro et al.(Biochemica et Biophysica Acta, 370, 369-377(1974)) as follows.
# The enzyme in the supernatant containing the microsome obtained in (Step 1) was activated at 37° C. for 30 min. Added to a reaction tube were 20 μl of HMG-CoA reductase assay buffer(0.25M KH2PO4(pH 7.0), 8.75 mM EDTA, 25 mM DTT, 0.45 M KCl and 0.25 mg/ml BSA), 5 μl of 50 mM NADPH, 5 μl of [^14C]HMG-CoA(0.05μ Ci/tube, final conc. 120μM), and 10 μl of activated microsomal enzyme(0.03-0.04 mg), and the mixture was incubated at 37° C. for 30 min. […] A region having a Rf value ranging from 0.65 to 0.75 was removed by scraping with a disposable cover slips and assayed for radioactivity with 1450 Microbeta liquid scintillation counter(Wallac Co., Finland). Enzyme activities were calculated as picomoles mevalonic acid synthesized per min. per mg protein(pmoles/min/mg protein).
# ACAT [4] = assay: ACAT activity in liver microsomes of fed rats; format: in vivo, rat; conditions: liver microsomes of rats fed 1% cholesterol plus 0.02% naringenin or 0.036% NG5006, six weeks
# Procedure: as §2, §3
# 6.67 μl of 1 mg/ml cholesterol solution in acetone was mixed with 6 μl of 10% Triton WR-1339(Sigma Co.) in acetone and then, acetone was removed from the mixture by evaporation under a nitrogen flow. Distilled water was added to the resulting mixture to adjust the concentration of cholesterol to […].
# Added to 10 μl of the resulting aqueous cholesterol solution were 10 μl of 1 M KH2PO4(pH 7.4), 5 μl of 0.6 mM bovine serum albumin(BSA), 10 μl of microsome solution obtained in (Step 1) and 55 μl of distilled water(total 90 μl). The mixture was pre-incubated in a water bath at 37° C. for 30 min. […]
# 200 μl of the resulting supernatant was put in a scintillation bottle and 4 ml of scintillation fluid(Lumac Co.) was added thereto. The mixture was assayed for radioactivity with 1450 Microbeta liquid scintillation counter(Wallac Co., Finland). ACAT activity was calculated as picomoles of cholesteryl oleate synthesized per min. per mg protein(pmoles/min/mg protein).
# Sprague-Dawley rats = assay: Plasma total cholesterol, HDL-cholesterol and triglyceride levels in rats fed high-cholesterol diet; format: in vivo, rat
# Excerpt: (Step 1) Administration of NG5006 to rats
# 30 four-week-old white Sprague-Dawley rats (Korea Institute of Science and Technology, Korea), each weighing about 90 to 120 g, were evenly divided into three dietary groups by a randomized block design. The rats of the three groups were fed with three different high-cholesterol diets, i.e., AIN-76 laboratory animal diet(ICN Biochemicals, Cleveland, Ohio, U.S.A.) containing 1% cholesterol(Control group), 1% cholesterol plus 0.02% naringenin and 1% cholesterol plus 0.036% NG5006, respectively.
# The rats were allowed to feed freely on the specified diet together with water for six weeks, the ingestion amount was recorded daily and the rats were weighed every 7 days, and then the record was analyzed. […] (Step 2) Determination of total cholesterol, HDL-cholesterol and triglyceride contents in blood
# The effects of administering naringenin or NG5006 to rats on the plasma cholesterol and triglyceride contents were determined as follows.
# Blood samples were taken from the rats of the three dietary groups and total cholesterol level was determined by using Sigma Diagnostic Kit Cat. No. C0534(Sigma Chemical Co., U.S.A.). HDL fractions were separated therefrom by using HDL-cholesterol reagent(Sigma Chemical Co., Cat. No. 352-1) and HDL-cholesterol level was determined by using Sigma Diagnostic Kit Cat. No. C9908(Sigma Chemical Co., U.S.A.). Triglyceride level was determined by using Sigma Diagnostic Kit Cat. No. 336-10(Sigma Chemical Co., U.S.A.).
# [5] = 1% cholesterol plus 1 mg/kg Lovastatin or 0.1% NG5006
# [6] = plasma, rats on 1% cholesterol diet plus 0.02% naringenin or 0.036% NG5006, six weeks
# [7] = rats, 1% cholesterol diet, six weeks
compound,measurement,setting,value
"CC[C@H](C)C(=O)O[C@H]1C[C@@H](C)C=C2C=C[C@H](C)[C@H](CC[C@@H]3C[C@@H](O)CC(=O)O3)[C@H]21 [Lovastatin ®, Lovastatin, reference compound]","layer on the arterial endothelium (FIGS. 1B, 1C)",[1]; [5],no or very thin layers of macrophage-lipid complex
same,"formation of fatty streak compared to the control group, in words","[1]; 1% cholesterol plus 1 mg/kg Lovastatin or 0.1% NG5006, 8 weeks",significantly inhibit the formation of fatty streak
same,Fatty Streak lesion (proportion of total arterial area),"[1]; 1% cholesterol plus 1 mg/kg Lovastatin or 0.1% NG5006, 8 weeks, Oil Red O staining",18.0 ± 9.5%
same,"microscopic features of the livers (FIGS. 2B, 2C)",[2]; [5],many cells containing excessive fat were observed around the central vein
same,Proportion of abnormal fat-containing liver cells (grade),"[2]; grades 1+(0-25%), 2+(26-50%), 3+(51-75), 4+(76-100%), 1% cholesterol plus 1 mg/kg Lovastatin or 0.1% NG5006, 8 weeks",3.3 ± 1.1
same,ACAT activity,ACAT [3],246.1 ± 52.5 pmole/min/mg protein
same,% Inhibition on ACAT Activity,ACAT [3]; versus control group,4.2%
"O=C1C[C@@H](c2ccc(O)cc2)Oc2cc(O)cc(O)c21 [Naringenin, naringenin, reference compound]",HMG-CoA reductase activity,HMG-CoA reductase,87.7 ± 5.9 pmole/min/mg protein
same,ACAT activity,ACAT [4],153.3 ± 6.9 pmole/min/mg protein
same,HDL-C (HDL-cholesterol),Sprague-Dawley rats; [6],35.8 ± 1.5 mg/dL
same,HDL-C/Total-C,Sprague-Dawley rats; [6],18.8 ± 0.9%
same,TG (triglyceride),Sprague-Dawley rats; [6],143.7 ± 9.4 mg/dL
same,Total-C (total cholesterol),Sprague-Dawley rats; [6],190.6 ± 7.6 mg/dL
same,AI: Atherosclerosis Index (AI = (Total-C − HDL-C)/HDL-C),"Sprague-Dawley rats; rats on 1% cholesterol diet plus 0.02% naringenin or 0.036% NG5006, six weeks",4.3 ± 0.3
same,total plasma cholesterol level lower than in the Control group,Sprague-Dawley rats; [7],16%
same,triglyceride level lower than in the control group,Sprague-Dawley rats; [7],6%
